Assay [1] concerns Homo sapiens. In words: Antioxidant activity against lipid peroxidation in chronic renal failure patient plasma assessed as reduction in malondialdehyde level at 2 mg/kg treated once day before night sleep by thiobarbituric acid based spectrophotometry (Rvb=2.68 +/- 0.44 umol/L). In kind it is functional, organism-based. More on the design: dose 2 mg/kg. Conditions: TDE = time-dependent effect.

The subject of assay [2] is Homo sapiens. Kind of assay: Antioxidant activity against lipid peroxidation in chronic renal failure patient plasma assessed as malondialdehyde level at 2 mg/kg treated once day before night sleep measured after 1 month by thiobarbituric acid based spectrophotometry (Rvb=2.68 +/- 0.44 umol/L). In kind it is functional.
Assay [3] relates to Homo sapiens. In words: Antioxidant activity against lipid peroxidation in chronic renal failure patient plasma assessed as malondialdehyde level at 2 mg/kg treated once day before night sleep measured after 2 months by thiobarbituric acid based spectrophotometry (Rvb=2.68 +/- 0.44 umol/L). In kind it is functional.
The subject of assay [4] is Homo sapiens. Kind of assay: Antioxidant activity against lipid peroxidation in chronic renal failure patient plasma assessed as malondialdehyde level at 2 mg/kg treated once day before night sleep measured after 3 months by thiobarbituric acid based spectrophotometry (Rvb=2.68 +/- 0.44 umol/L). In kind it is functional.

Data on one compound can be found in ChEMBL document CHEMBL1152889, “Melatonin: Quantum-chemical and biochemical investigation of antioxidant activity” (2009).

As for `COc1ccc2[nH]cc(CCNC(C)=O)c2c1` [MELATONIN], the Activity result in the assay on Homo sapiens [1] is “tde”; in the assay on Homo sapiens [2] it was 4.02 µM; with Homo sapiens [3], 3.09 µM; with Homo sapiens [4], 2.79 µM.
